Test results from patent publication US7759345B2, “Antitumoral derivatives of ET-743” (priority 2001, dated 2010).
Where two headings read alike, the source gives them in different places.

Key:
K-562 = assay: Inhibition of cells growth by colorimetric assay (SRB), K-562; type: cell-based
Method in brief: (§1)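 Human cancer and endothelial lines are seeded at 5×10^3 cells per well and, after 18 h, treated for 48 h with compound dissolved in DMSO/EtOH/PBS (0.5:0.5:99) at 10 to 10^−8 μg/ml. Cell mass is quantified by SRB staining (OD 490 nm), and growth inhibition, total growth inhibition and cell kill are calculated from triplicate wells.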

A-549 [1] = assay: Inhibition of cells growth by colorimetric assay (SRB), A-549; type: cell-based
Method in brief: as §1

SK-MEL-28 = assay: Inhibition of cells growth by colorimetric assay (SRB), SK-MEL-28; type: cell-based
Method in brief: as §1

HT-29 [2] = assay: Inhibition of cells growth by colorimetric assay (SRB), HT-29; type: cell-based
Method in brief: as §1

LoVo = assay: Inhibition of cells growth by colorimetric assay (SRB), LoVo; type: cell-based
Method in brief: as §1

LoVo-Dox = assay: Inhibition of cells growth by colorimetric assay (SRB), LoVo-Dox; type: cell-based
Method in brief: as §1

DU-145 [3] = assay: Inhibition of cells growth by colorimetric assay (SRB), DU-145; type: cell-based
Method in brief: as §1

LNCaP = assay: Inhibition of cells growth by colorimetric assay (SRB), LNCaP; type: cell-based
Method in brief: as §1

SK-BR-3 = assay: Inhibition of cells growth by colorimetric assay (SRB), SK-BR-3; type: cell-based
Method in brief: as §1

IGROV-1 = assay: Inhibition of cells growth by colorimetric assay (SRB), IGROV-1; type: cell-based
Method in brief: as §1

IGROV-ET = assay: Inhibition of cells growth by colorimetric assay (SRB), IGROV-ET; type: cell-based
Method in brief: as §1

SK-OV-3 = assay: Inhibition of cells growth by colorimetric assay (SRB), SK-OV-3; type: cell-based
Method in brief: as §1

PANC-1 = assay: Inhibition of cells growth by colorimetric assay (SRB), PANC-1; type: cell-based
Method in brief: as §1

HMEC1 = assay: Inhibition of cells growth by colorimetric assay (SRB), HMEC1; type: cell-based
Method in brief: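 48 h SRB cytotoxicity assay; compound range 10–10^−8 μg/ml; seeding 5×10^3 cells/well, 18 h pre-attachment; OD 490 nm; GI, TGI, LC from triplicate means ± SD.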

Liver [4] = assay: In vitro toxicity, Liver
Excerpt: (§3) Toxicity was asssessed by the methods reported in Toxicology in Vitro, 15 (2001) 571-577, J. Luber Narod et al.: “Evaluation of the use of in vitro methodolodies as tools for screening new compounds for potential in vivo toxicity”.

Heart [5] = assay: In vitro toxicity, Heart
Excerpt: as §3

Myelo [6] = assay: In vitro toxicity, Myelo
Excerpt: as §3

Kidney [7] = assay: In vitro toxicity, Kidney
Excerpt: as §3

Skeletal [8] = assay: In vitro toxicity, Skeletal
Excerpt: as §3

P-388 = assay: Inhibition of cell growth by counting cells, P-388; type: cell-based, mouse; details: Mus musculus, P388, 72 h; three days of incubation; read-out: IC50 (molar) P-388
Method in brief: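 IC50 is the sample concentration halving growth, taken from dose-response curves of cell counts (Coulter counter, duplicate wells) relative to drug-free cultures. P-388 (DBA/2 mouse lymphoid neoplasm) cells plated at 1×10^4 per well in EMEM with 5% FCS plus test sample.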

A-549 [9] = assay: Inhibition of cell growth by counting cells, A-549; type: cell-based, human; details: Homo sapiens, A549, 72 h; three days of incubation; read-out: IC50 (molar) A-549
Method in brief: (§2)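 1×10^4 cells/well, EMEM 5% FCS + test sample at several concs, duplicates; 3 d, 37° C, 5% CO2, humidified. Trypsinize, Coulter count; % growth vs untreated wells; IC50 from dose-response curve.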

HT-29 [10] = assay: Inhibition of cell growth by counting cells, HT-29; type: cell-based, human; details: Homo sapiens, HT-29, 72 h; three days of incubation; read-out: IC50 (molar) HT-29
Method in brief: as §2

MEL-28 = assay: Inhibition of cell growth by counting cells, MEL-28; type: cell-based, human; details: Homo sapiens, SK-MEL-28, 72 h; three days of incubation; read-out: IC50 (molar) MEL-28
Method in brief: as §2

DU-145 [11] = assay: Inhibition of cell growth by counting cells, DU-145; type: cell-based, human; details: Homo sapiens, DU-145, 72 h; three days of incubation; read-out: IC50 (molar) DU-145
Method in brief: as §2

tumor cell culture = assay: Bioassays for antitumor screening, cell line not given; type: cell-based; details: cell line not stated
Excerpt: Bioassays for Antitumor Screening
The finality of these assays is to interrupt the growth of a “in vitro” tumor cell culture by means a continued exhibition of the cells to the sample to be testing.

Liver [12] = test system: Liver
Excerpt: as §3

Heart [13] = test system: Heart
Excerpt: as §3

Myelo [14] = test system: Myelo
Excerpt: as §3

Skeletal [15] = test system: Skeletal
Excerpt: as §3

Kidney [16] = test system: Kidney
Excerpt: as §3

COc1cc2c(cc1O)CCN[C@]21CS[C@@H]2c3c(OC(=O)C(F)(F)C(F)(F)C(F)(F)F)c(C)c4c(c3[C@H](COC1=O)N1C2[C@H]2c3c(cc(C)c(OC)c3O)C[C@@H]([C@@H]1O)N2C)OCO4 (stereo partly shown) [Compound 167]
GI50 (K-562; Homo sapiens, K562, 48 h, read-out: K-562 GI50): 7 nM | LC50 (50% cell killing) (K-562; Homo sapiens, K562, 48 h, read-out: K-562 LC50, SRB assay, 48 hours exposure): 71.7 nM | K-562 TGI (K-562; SRB assay, 48 hours exposure): 9.64E-09 | GI50 (A-549 [1]; Homo sapiens, A549, 48 h, read-out: A-549 GI50): 28.3 nM | LC50 (concentration for 50% cell killing) (A-549 [1]; Homo sapiens, A549, 48 h, read-out: A-549 LC50, SRB assay, 48 hours exposure): 482 nM | A-549 TGI (A-549 [1]; SRB assay, 48 hours exposure): 6.54E-08 | GI50 (SK-MEL-28; Homo sapiens, SK-MEL-28, 48 h, read-out: MEL-28 GI50): 23.8 nM | CC50 (SK-MEL-28; Homo sapiens, SK-MEL-28, 48 h, read-out: MEL-28 LC50, SRB assay, 48 hours exposure): 107 nM | MEL-28 TGI (SK-MEL-28; SRB assay, 48 hours exposure): 5.06E-08 | GI50 (HT-29 [2]; Homo sapiens, HT-29, 48 h, read-out: HT-29 GI50): 28.9 nM | LC50 (concentration for 50% cell killing) (HT-29 [2]; Homo sapiens, HT-29, 48 h, read-out: HT-29 LC50, SRB assay, 48 hours exposure): 10900 nM | HT-29 TGI (HT-29 [2]; SRB assay, 48 hours exposure): 1.51E-07 | GI50 (LoVo; Homo sapiens, LoVo, 48 h, read-out: LOVO GI50): 33.6 nM | LC50 (concentration for 50% cell killing) (LoVo; Homo sapiens, LoVo, 48 h, read-out: LOVO LC50, SRB assay, 48 hours exposure): 190 nM | LOVO TGI (LoVo; SRB assay, 48 hours exposure): 6.74E-08 | GI50 (LoVo-Dox; Homo sapiens, 48 h, read-out: LOVO-DOX GI50): 416 nM | CC50 (LoVo-Dox; Homo sapiens, 48 h, read-out: LOVO-DOX LC50, SRB assay, 48 hours exposure): 10900 nM | LOVO-DOX TGI (LoVo-Dox; SRB assay, 48 hours exposure): 1.58E-06 | GI50 (DU-145 [3]; Homo sapiens, DU-145, 48 h, read-out: DU-145 GI50): 48.8 nM | CC50 (DU-145 [3]; Homo sapiens, DU-145, 48 h, read-out: DU-145 LC50, SRB assay, 48 hours exposure): 10900 nM | DU-145 TGI (DU-145 [3]; SRB assay, 48 hours exposure): 1.01E-07 | GI50 (LNCaP; Homo sapiens, LNCaP, 48 h, read-out: LNCAP GI50, SRB assay, 48 hours exposure): 19.7 nM | CC50 (LNCaP; Homo sapiens, LNCaP, 48 h, read-out: LNCAP LC50, SRB assay, 48 hours exposure): 73.6 nM | LNCAP TGI (LNCaP; SRB assay, 48 hours exposure): 3.80E-08 | GI50 (SK-BR-3; Homo sapiens, SK-BR-3, 48 h, read-out: SK-BR3 GI50): 17.6 nM | CC50 (SK-BR-3; Homo sapiens, SK-BR-3, 48 h, read-out: SK-BR3 LC50, SRB assay, 48 hours exposure): 238 nM | SK-BR3 TGI (SK-BR-3; SRB assay, 48 hours exposure): 5.19E-08 | GI50 (IGROV-1; Homo sapiens, IGROV-1, 48 h, read-out: IGROV GI50): 6.46 nM | CC50 (IGROV-1; Homo sapiens, IGROV-1, 48 h, read-out: IGROV LC50, SRB assay, 48 hours exposure): 89.2 nM | IGROV TGI (IGROV-1; SRB assay, 48 hours exposure): 2.49E-08 | GI50 (IGROV-ET; Homo sapiens, 48 h, read-out: IGROV-ET GI50): 77.6 nM | CC50 (IGROV-ET; Homo sapiens, 48 h, read-out: IGROV-ET LC50, SRB assay, 48 hours exposure): 5240 nM | IGROV-ET TGI (IGROV-ET; SRB assay, 48 hours exposure): 9.05E-07 | GI50 (SK-OV-3; Homo sapiens, SK-OV-3, 48 h, read-out: SK-OV3 GI50): 40.2 nM | LC50 (SK-OV-3; Homo sapiens, SK-OV-3, 48 h, read-out: SK-OV3 LC50, SRB assay, 48 hours exposure): 10900 nM | SK-OV3 TGI (SK-OV-3; SRB assay, 48 hours exposure): 1.48E-07 | GI50 (PANC-1; Homo sapiens, PANC-1, 48 h, read-out: PANC-1 GI50): 46.5 nM | LC50 (concentration for 50% net cell kill) (PANC-1; Homo sapiens, PANC-1, 48 h, read-out: PANC-1 LC50, SRB assay, 48 hours exposure): 10900 nM | PANC-1 TGI (PANC-1; SRB assay, 48 hours exposure): 1.09E-07 | GI50 (HMEC1; Homo sapiens, HMEC-1, 48 h, read-out: HMEC-1 GI50): 51.5 nM | LC50 (HMEC1; Homo sapiens, HMEC-1, 48 h, read-out: HMEC-1 LC50, SRB assay, 48 hours exposure): 10900 nM | HMEC-1 TGI (HMEC1; SRB assay, 48 hours exposure): 3.49E-07 | Toxicity Data Liver (Liver [4]): 4.83E-07 | Toxicity Data Heart (Heart [5]): 4.28E-07 | Toxicity Data Myelo (Myelo [6]): 1.01E-06 | Toxicity Data Kidney (Kidney [7]): 2.77E-07 | Toxicity Data Skeletal (Skeletal [8]): 1.09E-07

CCCCCCCCCCCCCCCC(=O)Oc1c(C)c2c(c3c1[C@H]1SC[C@]4(NCCc5cc(O)c(OC)cc54)C(=O)OC[C@@H]3N3C1[C@H]1c4c(cc(C)c(OC)c4O)C[C@@H]([C@@H]3O)N1C)OCO2 (stereo partly shown) [Compound 170]
IC50 (P-388): 52.2 nM | IC50 (A-549 [9]): 52.2 nM | IC50 (HT-29 [10]): 52.2 nM | IC50 (MEL-28): 52.2 nM | IC50 (DU-145 [11]): 52.2 nM | antitumor activity (in words) (tumor cell culture): active | Toxicity Data Liver (Liver [12]): 3.58E-07 | Toxicity Data Heart (Heart [13]): non toxic | Toxicity Data Myelo (Myelo [14]): non toxic | Toxicity Data Skeletal (Skeletal [15]): 3.29E-07 | Toxicity Data Kidney (Kidney [16]): 3.01E-07
